Source: US12577247B2 (BUGWORKS RESEARCH, INC., priority 2021, dated 2026)
Where two headings read alike, the source gives them in different places.

What was measured:
A2A receptor = target: T1, A2A receptor (Homo sapiens, UniProt P29274); assay: A2aR antagonism IC50, cAMP TR-FRET (Lance Ultra) in HEK-293 cells, NECA as agonist; assay type: cell-based; conditions: A2AR IC50 (nM) (@5 nM NECA), HEK-293 cells expressing A2A receptor; agonist NECA 5 nM (EC90); inhibition of cAMP;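 note: compounds tested from 10 µM down to 0.08 nM in buffer with Rolipram at room temperature, TR-FRET cAMP signal read 1 h after adding Eu-cAMP tracer and ULight anti-cAMP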
T1 construct: host or cells: HEK-293
Text: Adenosine A2A receptors and Adenosine A2B receptors induce the production of cAMP when activated/stimulated by an agonist like adenosine or 5′-(N-Ethylcarboxamido) adenosine (NECA). A Time-Resolved Fluorescence Energy Transfer (TR-FRET) assay was used to show the inhibition of this cAMP production in HEK cells upon treatment with compounds of the Formula I of the present disclosure.
HEK-293 cells expressing A2A receptor (#ES-011-C) or A2B receptor (#ES 013-C) were obtained from PerkinElmer. Cells were maintained in DMEM medium supplemented with 10% FBS and 200 μg/mL of G418 at 37° C. and 5% CO2. The cells were cultured in antibiotic free medium for a period of 16-20 hours prior to the assay. All subsequent steps of the assay are performed at room temperature (22-24° C.). The cells were harvested at about 80% confluency by gentle flushing with PBS, recovered by centrifugation and resuspended in stimulation buffer at the concentration of 5.0×10^6 cells/mL.
The assays were conducted in a stimulation buffer containing 1×DMEM, 5 mM HEPES, 0.1% BSA stabilizer and 20-30 μM Rolipram. Serial dilutions of compounds were made in stimulation buffer to achieve a final concentration of high micromolar (10 μM to 0.08 nM) in the reaction volume of 10 μL. The total reaction volume was 10 μL (5 μL of cells, 2.5 μL of antagonist and 2.5 μL of agonist). The stimulation was ended, and the reaction completed by adding 5 μL of 4× Eu-cAMP tracer working solution and 5 μL of 4× ULight-anti-cAMP working solution. The TR-FRET signal was measured after 1-hour incubation using a Tecan M1000 reader.

[1] = tested on: human Peripheral blood mononuclear cells (PBMCs); assay: Cytokine restoration assay in human PBMCs (IL-2, TNF-α) under NECA; assay type: cell-based; conditions: PBMC, NECA 5 μM, anti CD3/28 Dynabeads, 48 hours
Text: The ability of the invention compounds disclosed herein to restore the cytokines (IL-2 and TNF-α) release under adenosine agonist (NECA) environment evaluated using human Peripheral blood mononuclear cells (PBMCs). Peripheral blood was collected from healthy adult individuals in vacutainer tube. Peripheral blood mononuclear cells (PBMCs) were isolated via density gradient centrifugation, which uses Ficoll (Histopaque buffer) combined with short, low-speed centrifugation, to separate different cell populations. Diluted defibrinated blood was layered on a Ficoll and centrifuged at 1800 rpm for 20 minutes at 22° C. Differential migration of cells during centrifugation results in the formation of layers containing different cell types. The bottom layer contains erythrocytes. Remaining cells (i.e., lymphocytes, monocytes, and platelets) that are not dense enough to penetrate the Ficoll media layers (densities of 1.0770 g/ml), forms a buffy coat at the interface between the upper plasma layer and the Ficoll media layer. After carefully collected the buffy coat excess of platelets, Ficoll and plasma were removed by washing it with isotonic sterile phosphate buffered saline (PBS) and resulting cell pellet was resuspended in RPMI media with 5% FBS an P/S. The isolated PBMCs were allowed to be conditioned for an hour at 37° C. in a CO2 incubator. These cells were subsequently used for specific downstream assay. Isolated PBMC (3×10^5 cells/200 μl) were plated in 96 well microtiter plate in RPMI media with 5% FBS in presence of 100 units of penicillin plus 100 μg/ml streptomycin. NECA was added at a final concentration of 5 μM, control wells were maintained without NECA suppression (i.e., no NECA control). The assay plates were incubated at 37° C. for 4 hours in a CO2 incubator. Various concentrations of test compounds were added into respective wells in triplicates. Pre-washed anti CD3/28 Dynabeads (2.5 μL) was added for CD4 and CD8 + T-cell stimulation (to obtain a bead-to-cell ratio of 1:1). The assay plate was incubated at 37° C. in 5% CO2 and 20% ambient O2 maximum for 48 hours. At the end of 48 hours, the activated PBMC were harvested, and culture supernatants were used directly for further analysis. Forty-eight hours post treatment, 15 μL of cell-free supernatant was collected and assayed for secreted IL2 using the human Interleukin 2 (hIL2)—LANCE Ultra Detection Kit (Perkin Elmer). Similarly, level of soluble Tumor Necrosis Factor alpha (TNFα) was determined using human TNFα LANCE Ultra Detection Kit (Perkin Elmer). T-FRET signal was measured with Tecan spark multimode plate reader. Data was analyzed by graph-pad prism9. EC50 s of the compounds of Formula (I) in restoration of cytokine release under adenosine agonist from the human PBMCS are presented in Table 2

[2] = Plasma protein binding, equilibrium dialysis, mouse; assay type: in vitro ADME; conditions: plasma (10% plasma, extrapolated to 100% plasma), CD-1 plasma, 18 hours at 37° C.
Protocol: Protein binding is measured using the equilibrium dialysis technique. Compound is added to 10% plasma giving a concentration of 10 μM and dialysed with isotonic buffer for 18 hours at 37° C. The plasma and buffer solutions are analysed using generic LC UV/MS and the first apparent binding constant for the compound derived. The binding constant is then used to determine the % free in 100% plasma
The percentage of plasma bound/unbound fraction preparation was calculated as follows
[formula] [formula] where, • Tc=Total plasma concentration was determined by the calculated concentration on the plasma side of the chamber • Fc=[…] was determined by the calculated concentration on the buffer side of the chamber • To=Total compound concentration determined before analysis.

[3] = Pharmacokinetic study in dogs; assay type: in vivo, male Beagle dogs; conditions: for half-life / Vd / clearance / bioavailability / Cmax / Tmax: male, Beagle, plasma; for half-life: dog; for Vd: read-out: Vss; for Cmax / Tmax: po, p.o; for Cmax: read-out: Cmax (head Co*/); for Tmax: read-out: Tmax (head Tma)
Protocol: Intravenous (i.v) and Oral formulations for pharmacokinetic (PK) studies was formulated in different vehicles and excipients to achieve the desirable solubility for intravenous and Oral routes of administration.
Appropriate amount of the test compound was weighed and dissolved in required volume of the vehicles, followed by vertexing for a few seconds to dissolve the compound. Then the solution (or) suspension was sonicated at room temperature for 5 minutes to obtain a visually clear solution and or homogenous suspension. All the formulations were prepared freshly at room temperature before dosing.
The dog PK study was carried out in male Beagle dogs of minimum 10 Kg body weight to estimate the plasma clearance, volume of distribution and terminal half-life, area under curve (AUC) and peak plasma concentration (Cmax), time of peak plasma concentration (Tmax) and absolute bioavailability (% F) following intravenous and oral routes of administration.
Briefly, Example 13 and Example 39 was administered to a group of 3 non-naïve male dogs. The first set of 3 animals received an intravenous administration and following a washout period of 7 days, received an oral administration of Example 13. Following a further 7-day washout the animals will then repeat the intravenous and oral dosing regimen with an administration of Example 39. Blood samples (1 mL) was collected from the jugular vein by venepuncture into tubes containing K2EDTA anticoagulant at the following sampling times: • IV: Predose, 0.083 (5 min), 0.25, 0.5, 1, 2, 4, 8 and 24 hrs post-dose. • PO: Predose, 0.25, 0.5, 1, 2, 4, 8 and 24 hrs post-dose.
Immediately following collection blood samples was inverted to ensure mixing with anticoagulant and placed on wet ice. As soon as practically possible samples were centrifuged (3000 rpm, 10 min, at 4° C.) and the resultant plasma decanted into appropriately labelled polypropylene tubes in 96-well plate format and stored in a freezer set to maintain a temperature of ≤−65° C., until analysis.
Plasma samples were analysed for a fit-for purpose LC-MS/MS method with a lower limit of quantification. The pharmacokinetic parameters were calculated using the non-compartmental analysis tool of validated Phoenix® WinNonlin® software (Certara, USA version 8.4) with linear up and log down method for estimating AUC.
All animals in intravenous (IV bolus) group were under fed state and animals in oral groups were fasted overnight (min 12 hr) before dose administration and food was provided 4 h post dose administration. All animals were received water ad libitum during the study period. The mean (±SD) pharmacokinetic parameters of Example 13, Example 122b & Example 39 following IV bolus and Oral dose administration in Mice/Rat and Dog is provided in Table-9.

[4] = read-out: IL-2 restoration EC50
[5] = read-out: TNF-α restoration EC50
[6] = iv, 3 mg/kg, Dog, IV bolus, Table 6, read-out: T1/2 (IV bolus) (converted)
[7] = iv, 3 mg/kg, Dog, i.v, 3 mg/kg, read-out: t1/2 (converted)
[8] = oral, 10 mg/kg, Dog, Table 6, read-out: % F
[9] = Dog, oral 10 mg/kg vs IV bolus 3 mg/kg, read-out: % F (bioavailability)
[10] = 30 mg/kg, line stands under Dog

T1 sequence (P29274 whole entry): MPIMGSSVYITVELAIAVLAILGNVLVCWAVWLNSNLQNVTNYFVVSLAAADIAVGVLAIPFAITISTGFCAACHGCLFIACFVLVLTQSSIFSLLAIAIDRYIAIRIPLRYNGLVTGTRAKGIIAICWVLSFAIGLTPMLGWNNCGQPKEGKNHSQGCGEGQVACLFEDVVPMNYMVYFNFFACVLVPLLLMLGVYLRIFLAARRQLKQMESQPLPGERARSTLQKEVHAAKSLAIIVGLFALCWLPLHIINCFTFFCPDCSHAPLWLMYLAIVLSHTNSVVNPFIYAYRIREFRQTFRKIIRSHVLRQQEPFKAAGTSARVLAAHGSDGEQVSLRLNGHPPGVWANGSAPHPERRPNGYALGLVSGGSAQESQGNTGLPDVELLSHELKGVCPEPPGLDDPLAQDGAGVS

SMILES: Cc1cccc(CCNc2nc3c(C)c(C)nn3c(N)c2C#N)n1 [Example 13, 7-amino-5-((2-(6-methylpyridin-2-yl)ethyl)amino)-2,3-dimethylpyrazolo[1,5-a]pyrimidine-6-carbonitrile]
- IC50 (A2A receptor): 0.25 nM
- EC50 [1, 4]: 5.5 nM
- EC50 [1, 5]: 5.2 nM
- fraction unbound at 18 h, 10 µM [2]: 0.0933
- Total systemic clearance relative to hepatic clearance ([3]; Dog): equivalent to that of hepatic clearance
- Volume of distribution relative to total body water (TBW) ([3]; Dog): 3 × TBW
- Total CLsystemic in plasma ([3]; Dog, Table 6): 33 mL/min/kg
- Co (head Co*/) ([3]; Dog, i.v, 3 mg/kg): 2899 ng/m
- half-life [3, 6]: 46.2 min
- half-life [3, 7]: 42 min
- Vd ([3]; intravenous, Dog, Table 6): 1.8 L/kg
- clearance ([3]; iv, Dog, i.v, 3 mg/kg): 33 ± 3.6 mL/min/kg
- Vd ([3]; iv, Dog, i.v, 3 mg/kg): 1.75 L/kg
- bioavailability [3, 8]: 25%
- Cmax ([3]; Dog, 10 mg/kg): 839 ng/mL
- Tmax ([3]; Dog, 10 mg/kg): 30 min
- bioavailability [3, 9]: 25%

SMILES: CCc1c(C)nn2c(N)c(C#N)c(NCCc3ccn(C4(CO)CC4)n3)nc12 [Example 39, 7-amino-3-ethyl-5-((2-(1-(1-(hydroxymethyl)cyclopropyl)-1H-pyrazol-3-yl)ethyl)amino)-2-methylpyrazolo[1,5-a] pyrimidine-6-carbonitrile]
- IC50 (A2A receptor): 0.23 nM
- EC50 [1, 4]: 4.2 nM
- EC50 [1, 5]: 2.3 nM
- fraction unbound at 18 h, 10 µM [2]: 0.125
- Total systemic clearance relative to hepatic clearance ([3]; Dog): 1.7 ×
- Volume of distribution relative to total body water (TBW) ([3]; Dog): 3.3 × TBW
- Total CLsystemic in plasma ([3]; Dog, Table 6): 52 mL/min/kg
- Co (head Co*/) ([3]; Dog, i.v, 3 mg/kg): 1352 ng/m
- half-life [3, 6]: 27 min
- half-life [3, 7]: 24 min
- Vd ([3]; intravenous, Dog, Table 6): 2 L/kg
- clearance ([3]; iv, Dog, i.v, 3 mg/kg): 52 ± 8.7 mL/min/kg
- Vd ([3]; iv, Dog, i.v, 3 mg/kg): 2 L/kg
- bioavailability [3, 8]: 25%
- Cmax ([3]; Dog, 10 mg/kg): 618 ng/mL
- Tmax ([3]; Dog, 10 mg/kg): 30 min
- Cmax [3, 10]: 201 ng/mL
- Tmax [3, 10]: 30 min
- bioavailability [3, 9]: 25%

SMILES: CCc1c(C)nn2c(N)c(C#N)c(NCCc3ccn(C4COCC4CO)n3)nc12 (single isomer, unassigned; (-)) [Example 122b, (−)-7-amino-3-ethyl-5-((2-(1-(4-(hydroxymethyl)tetrahydrofuran-3-yl)-1H-pyrazol-3-yl)ethyl)amino)-2-methyl pyrazolo[1,5-a]pyrimidine-6-carbonitrile]
- EC50 [1, 4]: 1.4 nM
- EC50 [1, 5]: 1.2 nM
